How the values were obtained:
LDL-C = test: Integrated analysis of six Phase 2 studies of Bempedoic acid; assay type: in vivo, human; conditions: for LDL-C placebo-adjusted LS means for percent change from baseline: integrated analysis of six Phase 2 studies
Description: Doses of Bempedoic acid ranging from 40 to 240 mg/day have been evaluated in the Phase 2 program. Based on data from the integrated analysis of safety and efficacy, observed values and percent change from baseline in the primary efficacy endpoint, LDL-C, together with a positive safety profile, support the choice of the 180-mg dose for the Phase 3 studies. […] Overall, balancing efficacy and safety, the 180-mg dose was chosen for the Phase 3 program.

patients = test: Phase 1 and 2 clinical trials of bempedoic acid: adverse events of special interest; assay type: in vivo, human; conditions: Phase 1 or 2 clinical trials to date
monkey = test: Preclinical monkey studies (hypoglycemia and metabolic acidosis)

CC(C)(CCCCCC(O)CCCCCC(C)(C)C(=O)O)C(=O)O [Bempedoic acid, 8-hydroxy-2,2,14,14 tetramethylpentadecanedioic acid]
safety profile of the 180-mg dose (LDL-C; Phase 2 program, 180 mg): excellent safety profile
LDL-C placebo-adjusted LS means for percent change from baseline (LDL-C; 180 mg on top of stable statin therapy): ~22%
LDL-C placebo-adjusted LS means for percent change from baseline (LDL-C; Bempedoic acid 180 mg, monotherapy or with Ezetimibe 10 mg): approximately 32%
cases of hypoglycemia or metabolic acidosis (patients): No cases
outcome of hypoglycemia and metabolic acidosis (monkey): monkey deaths
